Results as given in patent US20260151504A1, “SYNTHETIC CELLS COMPRISING TNF-RELATED APOPTOSIS-INDUCING LIGAND (TRAIL) AND METHODS OF USING THE SAME” (Slingshot Biosciences, Inc., priority 2023, published 2026).

Key:
Jurkat tumor cells = assay: Annexin V / 7-AAD flow cytometry of Jurkat tumor cells treated with TRAIL delivery systems; format: cell-based; conditions: camptothecin 100 nM, percentage of cells
Experimental: (§1) Briefly, 100K live Jeko-1 or Jurkat cells were plated in RPMI media containing 10% Fetal bovine serum and 1% PenStrep in 100 μL volume.
(§2) Synthetic cytotoxic cells and equivalent total molecules of soluble TRAIL were plated 8 hours post seeding of tumor cells in 100 μL total volume. Amount of soluble TRAIL per well to match the amount of microsphere or bead-bound TRAIL was calculated as follows. Assuming 150K TRAIL molecules per microsphere/bead and 1e^6 microsphere/bead per well, 1.5e^11 soluble TRAIL molecules per well were used, which was calculated to be equivalent to 23 ng soluble TRAIL per well.
(§3) Twenty-four and forty-eight hours post incubation, cells were harvested and stained with Annexin V and 7-AAD. Anti-CD19 and Anti-CD3 antibodies were used to separate Jeko-1 cells from beads and Jurkat cells from beads, respectively. While Jeko-1 cells are CD19-expressing B-cells that are TRAIL-sensitive, Jurkat cells are CD3-expressing T cells that have low-moderate sensitivity to TRAIL. Determination of stage of cell death and % apoptotic cells were determined from the gating strategy outlined in FIG. 8. Samples were plated in duplicates and all sample acquisition was performed on the Cytoflex Beckman Coulter Flow Cytometer 24 hours and 48 hours post treatment of tumor cells with treatment conditions. Data analysis was further processed on FlowJo™ v10 software.

Jeko-1 tumor cells = assay: Annexin V / 7-AAD flow cytometry of Jeko-1 tumor cells treated with TRAIL delivery systems; format: cell-based; conditions: camptothecin 100 nM, percentage of cells
Experimental: as §1, §2, §3

[1] = Table 4A, Jeko-1, 24 Hrs., TRAIL equivalent to 1.5e^11 molecules per well

CC[C@@]1(O)C(=O)OCc2c1cc1n(c2=O)Cc2cc3ccccc3nc2-1 [Camptothecin, camptothecin]
Early Stage Apoptotic (7-AAD−/Annexin V+) (Jurkat tumor cells; Table 5A, 24 Hrs.): 59.8
Late Stage Apoptotic (7-AAD+/Annexin V+) (Jurkat tumor cells; Table 5A, 24 Hrs.): 26.9
Live Cells (7-AAD−/Annexin V−) (Jurkat tumor cells; Table 5A, 24 Hrs.): 13.1
Necrotic (7-AAD+/Annexin V−) (Jurkat tumor cells; Table 5A, 24 Hrs.): 0.13
Early Stage Apoptotic (7-AAD−/Annexin V+) (Jurkat tumor cells; Table 5B, 48 Hrs.): 25.5
Late Stage Apoptotic (7-AAD+/Annexin V+) (Jurkat tumor cells; Table 5B, 48 Hrs.): 69.8
Live Cells (7-AAD−/Annexin V−) (Jurkat tumor cells; Table 5B, 48 Hrs.): 3.36
Necrotic (7-AAD+/Annexin V−) (Jurkat tumor cells; Table 5B, 48 Hrs.): 1.33
Early Stage Apoptotic (7-AAD−/Annexin V+) (Jeko-1 tumor cells; [1]): 56.5
Late Stage Apoptotic (7-AAD+/Annexin V+) (Jeko-1 tumor cells; [1]): 39.5
Live Cells (7-AAD−/Annexin V−) (Jeko-1 tumor cells; [1]): 3.88
Necrotic (7-AAD+/Annexin V−) (Jeko-1 tumor cells; [1]): 0.077
Early Stage Apoptotic (7-AAD−/Annexin V+) (Jeko-1 tumor cells; Table 4B, Jeko-1, 48 Hrs.): 7.64
Late Stage Apoptotic (7-AAD+/Annexin V+) (Jeko-1 tumor cells; Table 4B, Jeko-1, 48 Hrs.): 91.0
Live Cells (7-AAD−/Annexin V−) (Jeko-1 tumor cells; Table 4B, Jeko-1, 48 Hrs.): 1.19
Necrotic (7-AAD+/Annexin V−) (Jeko-1 tumor cells; Table 4B, Jeko-1, 48 Hrs.): 0.13
